From ChEMBL document CHEMBL3045556, “Effect of temperature on the toxicity of several insecticides to Apolygus lucorum (Heteroptera: Miridae)” (2012)
Converted amounts (≈) assume the structure as drawn.

Experiments:
Assay type in all cases: functional
Apolygus lucorum [1] = experiment: Ratio of LC50 for third-instar Apolygus lucorum reared in asparagus bean pod at 15 degC to LC50 for third-instar Apolygus lucorum reared in asparagus bean pod at 20 degC
Apolygus lucorum [2] = experiment: Insecticidal activity against third-instar Apolygus lucorum reared in asparagus bean pod assessed as mortality administered by dipping pods in compound solution measured after 48 hr at 35 degC
Apolygus lucorum [3] = experiment: Insecticidal activity against third-instar Apolygus lucorum reared in asparagus bean pod assessed as mortality administered by dipping pods in compound solution measured after 48 hr at 30 degC
Apolygus lucorum [4] = experiment: Insecticidal activity against third-instar Apolygus lucorum reared in asparagus bean pod assessed as mortality administered by dipping pods in compound solution measured after 48 hr at 25 degC
Apolygus lucorum [5] = experiment: Insecticidal activity against third-instar Apolygus lucorum reared in asparagus bean pod assessed as mortality administered by dipping pods in compound solution measured after 48 hr at 20 degC
Apolygus lucorum [6] = experiment: Insecticidal activity against third-instar Apolygus lucorum reared in asparagus bean pod assessed as mortality administered by dipping pods in compound solution measured after 48 hr at 15 degC
Apolygus lucorum [7] = experiment: Ratio of LC50 for third-instar Apolygus lucorum reared in asparagus bean pod at 15 degC to LC50 for third-instar Apolygus lucorum reared in asparagus bean pod at 25 degC
Apolygus lucorum [8] = experiment: Ratio of LC50 for third-instar Apolygus lucorum reared in asparagus bean pod at 15 degC to LC50 for third-instar Apolygus lucorum reared in asparagus bean pod at 35 degC
Apolygus lucorum [9] = experiment: Ratio of LC50 for third-instar Apolygus lucorum reared in asparagus bean pod at 15 degC to LC50 for third-instar Apolygus lucorum reared in asparagus bean pod at 30 degC
Apolygus lucorum [10] = experiment: Ratio of LC50 for third-instar Apolygus lucorum reared in asparagus bean pod at 35 degC to LC50 for third-instar Apolygus lucorum reared in asparagus bean pod at 15 degC
Apolygus lucorum [11] = experiment: Ratio of LC50 for third-instar Apolygus lucorum reared in asparagus bean pod at 30 degC to LC50 for third-instar Apolygus lucorum reared in asparagus bean pod at 15 degC
Apolygus lucorum [12] = experiment: Ratio of LC50 for third-instar Apolygus lucorum reared in asparagus bean pod at 20 degC to LC50 for third-instar Apolygus lucorum reared in asparagus bean pod at 15 degC
Apolygus lucorum [13] = experiment: Ratio of LC50 for third-instar Apolygus lucorum reared in asparagus bean pod at 25 degC to LC50 for third-instar Apolygus lucorum reared in asparagus bean pod at 15 degC

Structure (SMILES)	RatioLC50 (Apolygus lucorum [1])	LC50 (Apolygus lucorum [2]) [µg/mL]	LC50 (Apolygus lucorum [3]) [µg/mL]	LC50 (Apolygus lucorum [4]) [µg/mL]	LC50 (Apolygus lucorum [5]) [µg/mL]	LC50 (Apolygus lucorum [6]) [µg/mL]	RatioLC50 (Apolygus lucorum [7])	RatioLC50 (Apolygus lucorum [8])	RatioLC50 (Apolygus lucorum [9])	RatioLC50 (Apolygus lucorum [10])	RatioLC50 (Apolygus lucorum [11])	RatioLC50 (Apolygus lucorum [12])	RatioLC50 (Apolygus lucorum [13])
CCCCN(CCCC)SN(C)C(=O)Oc1cccc2c1OC(C)(C)C2 [CARBOSULFAN]	2.36	156.75 (≈ 412 µM)	246.4 (≈ 647 µM)	199.4 (≈ 524 µM)	116.07 (≈ 305 µM)	274.15 (≈ 720 µM)	1.37	1.75	1.12	–	–	–	–
C/C(=N\C#N)N(C)Cc1ccc(Cl)nc1 [ACETAMIPRID]	1.66	181.95 (≈ 817 µM)	264.02 (≈ 1190 µM)	420.95 (≈ 1890 µM)	972.05 (≈ 4370 µM)	1613.76 (≈ 7250 µM)	3.83	8.87	6.11	–	–	–	–
CC1(C)C(/C=C(\Cl)C(F)(F)F)C1C(=O)O[C@@H](C#N)c1cccc(Oc2ccccc2)c1 (some centres not stated) [GAMA-CYHALOTHRIN]	–	95.03 (≈ 211 µM)	72.22 (≈ 161 µM)	27.96 (≈ 62.2 µM)	25.6 (≈ 56.9 µM)	25.28 (≈ 56.2 µM)	–	–	–	3.76	2.86	1.01	1.11
O=[N+]([O-])/N=C1\NCCN1Cc1ccc(Cl)nc1 [IMIDACLOPRID]	2.2	148.05 (≈ 579 µM)	238.47 (≈ 933 µM)	1025.9 (≈ 4010 µM)	1507.97 (≈ 5900 µM)	3324.02 (≈ 13000 µM)	3.24	22.45	13.94	–	–	–	–
CNC(=O)ON=C(C)SC [METHOMYL]	–	731.98 (≈ 4510 µM)	1108.75 (≈ 6840 µM)	895.41 (≈ 5520 µM)	564.28 (≈ 3480 µM)	482.96 (≈ 2980 µM)	–	–	–	1.52	2.3	1.17	1.85
CC1(C)[C@H](C=C(Cl)Cl)[C@H]1C(=O)O[C@@H](C#N)c1cccc(Oc2ccccc2)c1 [BETA-CYPERMETHRIN]	–	20.78 (≈ 49.9 µM)	28.44 (≈ 68.3 µM)	11.83 (≈ 28.4 µM)	14.86 (≈ 35.7 µM)	0.4 (≈ 0.961 µM)	–	–	–	51.35	70.27	36.72	29.23
CCOP(=S)(OCC)O/N=C(\C#N)c1ccccc1 [PHOXIM]	1.27	173.53 (≈ 582 µM)	196.5 (≈ 659 µM)	237.93 (≈ 798 µM)	156.17 (≈ 524 µM)	198.24 (≈ 665 µM)	–	1.14	1.01	–	–	–	1.2
N#Cc1nn(-c2c(Cl)cc(C(F)(F)F)cc2Cl)c(N)c1[S+]([O-])C(F)(F)F (configuration not stated) [FIPRONIL]	–	0.1 (≈ 0.229 µM)	0.33 (≈ 0.755 µM)	0.72 (≈ 1.65 µM)	1.69 (≈ 3.87 µM)	0.34 (≈ 0.778 µM)	–	3.4	1.03	–	–	5.76	2.12
